Assays:
[1] = format: physicochemical
Protocol: The material forms white to pale beige monoclinic crystals with unit cell parameters of about a=7.899(1)Å, b=8.765(1)Å, c=31.626(2)Å, beta=103.253(7) degrees, V=2131 Å^3, based on powder x-ray diffraction analysis. The solubility of this compound is measured as about 5 millimolar in distilled deionized water at 23° C. Crystallization from other solvents or under other conditions may produce other crystal structures. Under some conditions, water or other solvents may also be incorporated into the structure. […] About 5.5 grams of powdered anhydrous sodium carbonate are added, and stirring continues for additional 12 minutes. […] The remaining crystalline solid is the 3:1 maltol gallium composition. […] The solubility of this composition is measured as about 24 millimolar in distilled deionized water at 23° C.

transferrin (Tf) = target: T1, transferrin (Tf) (Homo sapiens, UniProt P02787); conditions: oral, versus intravenous gallium nitrate; cited from earlier work
T1 construct: host or cells: circulating (blood plasma) transferrin of the dosed subject
T1 sequence (P02787 20-698, species assumed): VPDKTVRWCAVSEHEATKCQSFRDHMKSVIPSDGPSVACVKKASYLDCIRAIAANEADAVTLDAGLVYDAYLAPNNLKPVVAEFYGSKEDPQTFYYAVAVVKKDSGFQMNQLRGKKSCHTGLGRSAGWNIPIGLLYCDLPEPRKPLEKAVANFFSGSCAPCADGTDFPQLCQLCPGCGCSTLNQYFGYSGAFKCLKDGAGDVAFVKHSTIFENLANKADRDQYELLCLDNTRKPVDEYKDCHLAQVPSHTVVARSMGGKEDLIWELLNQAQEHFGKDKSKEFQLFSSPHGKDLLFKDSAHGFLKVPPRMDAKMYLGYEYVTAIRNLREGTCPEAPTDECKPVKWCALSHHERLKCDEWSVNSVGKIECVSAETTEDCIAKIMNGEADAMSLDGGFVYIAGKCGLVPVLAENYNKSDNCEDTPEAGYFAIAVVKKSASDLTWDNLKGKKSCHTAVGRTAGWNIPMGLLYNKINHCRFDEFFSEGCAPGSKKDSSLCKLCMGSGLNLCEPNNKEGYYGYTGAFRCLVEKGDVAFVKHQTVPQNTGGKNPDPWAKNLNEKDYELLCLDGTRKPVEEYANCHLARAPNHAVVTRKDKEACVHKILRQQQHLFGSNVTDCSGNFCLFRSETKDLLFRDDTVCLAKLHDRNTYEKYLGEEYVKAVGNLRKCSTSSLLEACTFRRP

HIV-1 = test: Clinical evaluation in co-infection by HIV and hepatitis B: HIV; format: in vivo, human; conditions: hepatitis B co-infected patients; MacSynergy II
Protocol: (§1) Gallium maltolate is evaluated clinically for efficacy in treating hepatitis B co-infection of a HIV-1 patients. In addition to the methods used in Example 5 for evaluating the HIV disease, the methods employed in the clinical studies discussed in the following references are used in the evaluation: Yao et al. (1997), “Treatment of Chronic Hepatitis B: New Antiviral Therapies,” Curr. Gastroenterol. Rep. 1(1):20-26; Hoofnagle et al. (1997), “New therapies for chronic hepatitis B,” supra.
(§2) Patients are treated once per day with gelatin capsules containing gallium maltolate. The population of patients with hepatitis B and HIV infection are first divided into two subpopulations groups based on CD4+ counts (above 350/mm^3 and below 350/mm^3). […]
(§3) In each subpopulation, the first group's four subgroups from each subpopulation (above 350/mm^3 and below 350/mm^3) additionally receive the gallium maltolate dose together with 10 million IU interferon by injection once per day. […] Patients are monitored for HIV disease precisely as described in Example 5. Patients are also medically monitored for liver disease, including liver function testing and examination for medical symptoms of hepatitis B infection throughout the study, with careful attention to the possibility that the drugs themselves may cause some liver disease and elevate the liver function tests. […]

hepatitis B = test: Clinical evaluation in co-infection by HIV and hepatitis B: hepatitis B; format: in vivo, human
Protocol: as §1, §2, §3

[2] = in vivo, po; cited from earlier work
Varicella-Zoster (VZV) = test: Clinical evaluation for Varicella-Zoster (VZV) infection and recurrences; format: in vivo, human
Protocol: Gallium maltolate is evaluated clinically for efficacy in treating Varicella-Zoster (VZV) infection in HIV negative individuals who show no signs of immune dysfunction of any type. Patients with VZV infection are treated once per day with gelatin capsules containing gallium maltolate. The population of patients is divided into subpopulation with recurrent VZV (shingles) and acute VZV infections (chickenpox) respectively. These different subpopulations are divided randomly and blindly into two approximately equal groups with four approximately equal subgroups that receive either 0 (placebo), 250, 500, or 750 mg/day gallium maltolate for about six months. The first group of each subpopulation receive the gallium maltolate dose together with 800 mg acyclovir five times per day. The second group of each subpopulation receive the gallium maltolate dose together with 500 mg ganciclovir twice per day. Patients are medically monitored for resolution reoccurrences of latent VZV infection, or medical symptoms of acute VZV infection throughout the study, with the monitoring including in situ hybridization of skin lesions for VZV DNA. In addition for the acute VZV infected group, blood serum samples are obtained from the patients at days 1-5 and are assayed for VZV particles by routine methods and for VZV DNA (viral load assay) using PCR.

HIV = test: Clinical evaluation for prevention of CMV disease in HIV patients: HIV; format: in vivo; conditions: CMV prevention study; MacSynergy II
Protocol: Patients are treated once per day with gelatin capsules containing gallium maltolate. The population of patients with CMV (almost universal, seropositive or culture positive patients) and HIV infection are first divided into two subpopulations groups based on CD4+ counts (above 350/mm^3 and below 350/mm^3). The subpopulations are randomly and blindly divided into two groups each randomly subdivided into subgroups for a total of sixteen approximately equal subgroups that receive either 0 (placebo), 250, 500, or 750 mg/day gallium maltolate for about six months. All subgroups receive the identical regimen of non-gallium antiretroviral therapy as described in Example 5 (a HAART regime). […] In each subpopulation, the first group's four subgroups from each subpopulation (above 350/mm^3 and below 350/mm^3) additionally receive the gallium maltolate dose together with 5500 mg foscarnet, IV infusion over 1.5-2 hr., twice per day. In each subpopulation, the second group's four subgroups receive the gallium maltolate dose together with 1000 mg ganciclovir four times per day. Patients are monitored for HIV disease precisely as described in Example 5. Patients are also medically monitored for CMV disease, including testing and examination for medical symptoms of CMV disease, such as CMV retinitis, throughout the study. Any mucosal or skin lesions are studied by in situ hybridization for CMV DNA. […]

For Cc1occc(=O)c1[O-].Cc1occc(=O)c1[O-].Cc1occc(=O)c1[O-].[Ga+3] [gallium maltolate, tris(3-hydroxy-2-methyl-4H-pyran-4-onato)gallium], the Solubility [1] is given as “about 24 millimolar”, the “Tf binding of absorbed gallium and tissue distribution” value (transferrin (Tf)) is given as “higher Tf binding of absorbed gallium and therefore better tissue distribution than intravenous gallium nitrate” and the “Synergy with the HAART regime on HIV infection” value (HIV-1) is given as “synergistic with the HAART regime in their effects upon the HIV infection”. For the same compound, the “Efficacy in treating hepatitis B infection in combination” value (hepatitis B; HIV co-infected patients on HAART, with interferon-alpha or lamuvidine) was “effective in combination with interferon and interferon plus nucleoside analogs”, the “Synergy in treating hepatitis B infection” value (hepatitis B; with interferon and interferon plus nucleoside analogs) was “synergistic with both” and the Renotoxicity or nephrotoxicity [2] was “no renotoxicity or nephrotoxicity has been observed”. The “Efficacy in treating VZV infection” value (Varicella-Zoster (VZV); HIV negative patients, 250-750 mg/day oral with acyclovir or ganciclovir) was “effective for treating VZV infection, including recurrent sores as well as more serious systemic disease”, the “Efficacy of combination with acyclovir or ganciclovir versus single agents” value (Varicella-Zoster (VZV); VZV) was “more effective than either agent alone” and the “Synergy with nucleoside analogs” value (Varicella-Zoster (VZV); VZV, MacSynergy II) was “synergy of gallium with both nucleoside analogs is also demonstrated”. The “Synergy with the HAART regime on HIV infection” value (HIV) was “synergistic with the HAART regime in their effects upon the HIV infection”.

— patent publication US20060222628A1, “Gallium complexes of 3-hydroxy-4-pyrones to treat infection by intracellular prokaryotes and DNA viruses” (priority 1999, published 2006)
